The subject of data set [1] is Bclxl expression in the thymus. In words: Bclxl expression in thymus after oral dosing (QPCR). The class given is in vivo, mouse. Particulars: 100 mg/kg PO, C57Bl/6 female mice; S5 Fig. The procedure:
Supplementary file pone.0248034.s009.tif: S5 Fig RORγt inhibitors reduce Bclxl expression in thymus of rodents. C57Bl/6 female mice were dosed PO with 100 mg/kg Compound 1, 2 or 3. Thymic tissues were collected from separate cohorts at 2, 8, 16 and 24 hours post-dose (n = 3 mice/timepoint). RNA was extracted from thymic tissues and Bclxl expression measured by QPCR. […] Time zero (‘0’) used as normalization timepoint and set to 1.0 RQ and mean set at 100% for % inhibition calculation. One-way ANOVA with Bonferroni correction for multiple comparisons used for statistical significance calculations. (TIF) Click here for additional data file.

Data set [2] deals with IMQ-induced skin inflammation in Balb/c mice. In words: Imiquimod (IMQ)-induced skin inflammation model. Format: in vivo, mouse. Particulars: for ear thickness: IMQ vehicle 0.21 ± 0.03 mm. The protocol:
For IMQ-induced skin inflammation, wild-type (WT) Balb/c female mice, 5–8 weeks of age, were purchased from Charles River Laboratories. All mice were housed in pathogen-free conditions at Bristol Myers Squibb (Cambridge, MA). Aldara cream containing 5% imiquimod (Patterson Veterinary Supply, Inc; Devens, MA) was applied to the ears daily (11–14 mg) for 3 days. Mice were treated twice daily (BID) on days 1–4 per os (PO) with vehicle (0.5% methylcellulose/0.25% Tween80) or RORγt inhibitors at indicated doses immediately prior to Aldara application. Ear thickness was measured using micro-calipers. Tissues were harvested on day 4, 2 hours following the last compound dose. Naïve mice are completely untreated, receiving neither control vehicle for IMQ nor Compound.
For RNA isolation & gene expression, ears are collected on day 4 in RNAlater (Qiagen) and stored at 4°C until processed. Ears were homogenized using Procellys 24 homogenizer & hard tissue homogenizing beads (Bertin Instruments), 2 cycles of 30 seconds @ 6000 rpm in RLT lysis buffer according to manufacturer’s instructions. RNA was isolated using RNAeasy Plus MiniPrep columns (Qiagen) and cDNA generated using SuperScript VILO cDNA Synthesis kit (Invitrogen). Gene expression was quantified using TaqMan Fast Master Mix & and TaqMan FAM-MGB probe sets (Applied Biosystems): Gapdh, Mm99999915_g1, Il17a, Mm00439618_m1, Il17f, Mm00521423_m1, Il22, Mm01226722_g1 & Bclxl, Mm00437783_m1. QPCR reactions were run on QuantStudio 7 instrument. Relative quantification and fold changes were calculated using ddCT values against Gapdh and normalized to control-treated animals. For PDAC xenografts, RNA was isolated from tumor sections using Qiagen RNeasy kit (cat#74106), then cDNA was prepared using 2 μg of RNA and the high capacity RNA to cDNA kit (Applied Biosystems, cat#4387406) as per manufacturer’s instructions. Biomarker expression was determined using Taqman gene expression probes (S1 Table) and Universal master mix (ThermoFisher Scientific cat#4305719) with expression levels normalized to Gapdh.
For cytokine production, ears are removed, split in half using forceps and floated, dermis side-down, in DMEM media (Gibco) and incubated at 37° C for 24 hours. Following incubation, media was removed and cytokine production assessed by Luminex assay (Bio-Rad Laboratories).

Data set [3] deals with MOG35-55-induced EAE in C57BL/6 mice. The data set can be described thus: Experimental autoimmune encephalomyelitis (EAE) model. The class given is in vivo, mouse. Particulars: 3 mg/kg QD. The protocol: EAE studies were conducted at Hooke Laboratories. WT female C57BL/6 mice (Taconic Labs) 9 weeks of age were inoculated on day 0 with MOG35-55 peptide (Hooke Kit™ MOG35-55/CFA Emulsion PTX) (EK-2110, Hooke Laboratories, Lawrence MA) followed by intraperitoneal (IP) injections of pertussis toxin at 2 and 24 hours. Mice were treated twice daily (BID, starting at day 1) per os (PO) with vehicle (0.5% MC/0.25% Tween80) or RORγt inhibitors at indicated doses. FTY720 (Gilenya) was dosed once daily (QD) at 3 mg/kg starting at day 1. EAE clinical scores were evaluated daily and scored from 0–5 according to Hooke Lab EAE scoring guidelines http://hookelabs.com/services/cro/eae/MouseEAEscoring.html. Mean clinical scores & body weight loss were assessed and statistical significance calculated by Wilcoxon’s non-parametric or 2-tailed Student’s t-test, respectively. All studies performed were approved in accordance with the Institutional Animal Care and Use Committee of Bristol Myers Squibb and complied according to Bristol Myers Squibb guidelines.

The next data set deals with psoriasis patients. Details: method as in PMID 29936103. Particulars: cited from earlier work.
Data set [4] concerns human and mouse xenograft tumor growth. On the set-up: method as in PMID 30955884. Particulars: modulation of RORγt activity; cited from earlier work.
For the next data set, the system named is PDAC PDO model T020P. The data set can be described thus: In vitro organoid growth assay (CellTiter-Glo 3D), T020P. The class given is cell-based, human. Particulars: Homo sapiens, 72 h; treated 3 days post-plating; T020P. The protocol: (§1) Patient derived organoids were established as previously described. Briefly, PDX tumor chunks were minced then enzymatically digested into single cells by using a tumor dissociation Kit (Miltenyi, Cat# 130-095-929). Mouse and human cells were separated through magnetic separation, and isolated tumor cells were cultured on Matrigel-coated dishes. […]
(§2) Organoids were isolated and dissociated as described above. Cell numbers were counted by trypan blue exclusion and 5000 cells per well were plated on the Matrigel coated and pre-warmed 96-well plates. […] 100 μl of CellTiter-Glo® 3D reagent (Promega cat# G9682) was added to each well after desired time points and luminescence signal measured after 30 minutes.
(§3) Supplementary file pone.0248034.s010.tif: S6 Fig Schematic of Patient-derived organoids (PDO) growth & formation assays. […] After the indicated treatment schedule organoid growth or formation was assessed by CTG assay. […]

Data set [5] deals with PDAC PDO model T031P. The data set can be described thus: In vitro organoid growth assay (CellTiter-Glo 3D), T031P. Format: cell-based, human. Particulars: Homo sapiens, 72 h, treated 3 days post-plating. The protocol: as §1, §2, §3
(Cellular ATP, detected with luciferase, serves as a proxy for viable cell number.)

Data set [6] deals with PDAC PDO model T031P. The data set can be described thus: In vitro organoid formation assay (CellTiter-Glo 3D). Format: cell-based. Particulars: Homo sapiens, PDO model not named in the sentence (Fig 8B: T020P and T031P). The protocol: Patient derived organoids were established as previously described. Briefly, PDX tumor chunks were minced then enzymatically digested into single cells by using a tumor dissociation Kit (Miltenyi, Cat# 130-095-929). Mouse and human cells were separated through magnetic separation, and isolated tumor cells were cultured on Matrigel-coated dishes. Organoid cultures were maintained by growing on Matrigel in human complete maintenance media: Advanced DMEM/F12 media (Life Technology, Cat# 12634028), 10 mM HEPES (Life Technology, Cat# 15630–080), 1X Glutamax (Life Technology, Cat# 35050–061), 1X Antibiotic-Antimycotic (Life Technology, Cat# 15240–062), 10 mM Nicotinamide (Sigma-Aldrich, Cat# N0636-500G), 250 ng/mL R-Spondin-1 (Peprotech, Cat# 120–38), 100 ng/mL Noggin (Peprotech, Cat# 120-10C), 50 ng/mL EGF (Peprotech, Cat# AF-100-15), 100 ng/mL FGF10 (Peprotech, Cat# 100–26), […] (Sigma-Aldrich, Cat# G9020), 500 nM A83-01 (Sigma, Cat# SML0788), 20 μM Y-27632 (LC Laboratories, Cat# Y-5301), 1X B27 (Life Technology, Cat# 12587010), 10 ng/mL Wnt3a (R&D Systems, Cat# 5036-WN-010), 0.1% Methylcelluose (R&D Systems, Cat# HSC001) and Plasmocin (Invivogen, Cat# Ant-mpp) and were passaged every 10–14 days. Organoids were isolated from Matrigel (Corning, Cat# 08-774-406) in a cell recovery solution (Corning, Cat# CB-40253). Spheroid clusters were then dissociated into a single cell suspension with TrypLE (Gibco, Cat# 12605). […]
as §2, §3

The subject of data set [7] is plaque psoriasis patients. Particulars: cited from earlier work.
Data set [8] has as its system KP/C pancreatic tumors in C57Bl/6 mice. The data set can be described thus: In vivo tumor growth suppression, KP/C mouse model. Particulars: single agent vs vehicle; 28 days of dosing.
Description: Pancreatic tumor chunks from KP/C mice [20] on C57Bl/6 background were inoculated subcutaneously in the flank of syngeneic mice. […] Tumor volumes and body weight were measured twice each week.
To test whether inhibition of RORγt can lead to tumor growth inhibition we utilized the Kras^G12D/+/Trp53^null/Pdx1-cre (KP/C) mouse model of pancreatic cancer [20]. C57Bl/6 mice were inoculated in the flank with KP/C tumor chunks and enrolled in the study when the average tumor volume reached 200 mm^3. […] To evaluate target engagement, we examined changes in expression of a subset of potential RORγt target genes in tumor samples.

The values that follow come from article PMC8577775, “Small molecule allosteric inhibitors of RORγt block Th17-dependent inflammation and associated gene expression in vivo” (PLoS ONE, 2021).

Molecules are shown by their SMILES.

As for `O=C(O)[C@@H]1CCN(c2nn(C(=O)c3c(Cl)cccc3C(F)(F)F)c3cccc(F)c23)C[C@H]1O` [Compound 1], the “Bclxl expression in the thymus” value in data set [1] was “modulation of Bclxl expression in the thymus”. Moreover, the ear thickness in data set [2] (day 4, 45 mg/kg PO) was 0.17 ± 0.02 mm; in [2] (day 4, 75 mg/kg PO), 0.16 ± 0.008 mm. In addition, in data set [2] (day 4, all dose levels tested (30, 45, 75 mg/kg PO)), the “Th17-cytokine gene expression (Il17a, Il17f, Il22) in ear skin” value was “reduced Th17-cytokine gene expression at all dose levels tested”. Besides, the “IMQ-induced IL-17A cytokine production in ear tissues” value in data set [2] (ear tissue floats cultured 24 hours ex vivo, Luminex) was “reduced IMQ-induced IL-17A cytokine production”.
For `O=C(O)[C@@H]1CCC(c2nn(C(=O)c3c(Cl)cccc3C3CC3)c3cccc(F)c23)=C[C@H]1O` [Compound 2], in data set [1], the “Bclxl expression in the thymus” value was “modulation of Bclxl expression in the thymus”. The “Th17-dependent gene expression and inflammation” value in data set [2] (oral administration, S4 Fig) is “inhibition of Th17-dependent gene expression and inflammation”.
On to `CCCCCCCCc1ccc(CCC(N)(CO)CO)cc1` [FTY720, reference compound], for which the disease onset in data set [3] (vehicle day 12) is 20 days. Besides, in data set [3] (vehicle peak 3.08 ± 0.28), the “EAE clinical score (0-5)” value is 0.54 ± 0.234.
As for `CCOc1cc([C@@H](CS(C)(=O)=O)N2C(=O)c3cccc(NC(C)=O)c3C2=O)ccc1OC` [Otezla], the “reduction of production of IL-17A, IL-17F, IL-22 and TNFα” value in the data set on psoriasis patients (Week 4) is recorded as 40–50%. For the same compound, in the data set on psoriasis patients (Week 16), the PASI-75 response rate result is given as “approximately 30%”.
For the compound `OC(c1ccc(-c2ccc(CN3CCN(Cc4ccncc4)CC3)cc2)c(F)c1)(C(F)(F)F)C(F)(F)F` [SR2211, reference compound], the “human and mouse xenograft tumor growth” value in data set [4] was “sufficient to inhibit”. For the same compound, the half-inhibitory concentration (IC50) is ~3000 nM in the data set on PDAC PDO model T020P, ~3000 nM in the data set with PDAC PDO model T031P [5] and ~1000 nM in the data set with PDAC PDO model T031P [6].
On to `CCS(=O)(=O)c1ccc(CNC(=O)c2cnc3c(c2)CN(C[C@H]2CC[C@H](C(F)(F)F)CC2)[C@H]3C(C)C)nc1` [VTP-43742], for which the PASI-75 response rate in [7] (Week 4) is given as 25–30%. Also, the “reduction in IL-17A and IL-17F levels in plasma” value in data set [7] is listed as 50–75%.
Turning to `N.N.[Cl][Pt][Cl]` [cisplatin, reference compound], the tumor volume result in [8] was “significantly reduced”.

The IC50 is the concentration needed to halve the response being measured. Read a low IC50 as inhibition by little substance.
